In patent US4609664A, “Antiasthmatic piperidylidene derivatives” (Sandoz Ltd., priority 1980, dated 1986):
Read-outs that look alike come from different tables or passages of the source.

Tested on: cutaneous anaphylactic reaction
Assay: passive cutaneous anaphylaxis (PCA) test in the rat
Assay type: in vivo
Conditions: dose decreasing diameter of blue area by 50% vs solvent controls, female rats
Description: This activity is indicated in the passive cutaneous anaphylaxis (PCA) test in the rat.
The method employed in this test is based on those described by Mota, Immunology 7, 681 (1964) and Stofland and Share, J. Physiol. Pharmacol. 52, 1114 (1974). Female rats (180-200 g) are sensitized by subcutaneous administration of 1 mg of ovalbumin and 200 mg aluminium hydroxide, dissolved in 1 ml of physiological saline solution and intraperitoneal administration of 0.5 ml of Haemophilus pertussis vaccine (SchweizerischesSerum- und Impfinstitut, Bern, Switzerland; 4×10^10 organism/ml). Fourteen day later, the animals are decapited, the blood centrifuged and the serum (anti-ovalbumin serum) collected and deep frozen.
The diluted anti-ovalbumin serum is injected intradermally (0.1 ml per injection site) at […] on the backs of untreated, female rats. Twenty-four hours after the passive sensitisation, the rats receive either solvent or the test compound i.v. in a tail-vein or per os. Immediately afterwards or, in the case of p.o. administration, 60 minutes later, the animals receive an intravenous injection of 1 ml of antigen. The antigen (5 mg/ml) is dissolved in a 0.25% solution of Evans blue dye in physiological saline. In the controls this injection elicits a cutaneous anaphylactic reaction, the intensity of which is proportional to the distance to which the dye diffuses into the tissue surrounding the four sensitisation sites. Thirty minutes later, the rats are killed in CO2 and the diameter in mm of the blue spot at each injection site measured. The drug dose decreasing the diameter of the blue area by 50% compared with solvent pretreated control rats (ED50), is obtained from the regression line. The dose-effect correlation is tested for statistical significance.
In the above test, compounds of the formula I are found to be active on administration at dosages of from about 0.1 to about 3.2 mg/kg p.o. and from about 0.056 to about 1.00 mg/kg i.v. ED50 values for the representative compounds 4-{1-[2-[2-(2-hydroxy-ethoxy)ethoxy]ethyl]piperidin-4-yliden}-4H-benzo[4,5]cyclohepta[1,2-b]thiophen-10(9H)-one. HBr (Compound A) and 2-{2-[2-[4-(5H-dibenzo[a,d]cyclohept-5-yliden)piperidin-1-yl]ethoxy]ethoxy}ethanol hydrogenofumarate (Compound B) as well as for the reference compound 5,5'-[(2-hydroxy-1,3-propanediyl)bis-(oxy)]bis[4-oxo-4H-1-benzopyran-2-carboxylic acid]

[1] = iv, i.v. in a tail-vein, immediately before antigen, read-out: ED50 (i.v.)
[2] = po, 60 minutes before antigen, read-out: ED50 (p.o)

| SMILES | ED50 [1] [mg/kg] | ED50 [2] [mg/kg] |
| --- | --- | --- |
| O=C1Cc2ccccc2C(=C2CCN(CCOCCOCCO)CC2)c2ccsc21 [Compound A, 4-{1-[2-[2-(2-hydroxy-ethoxy)ethoxy]ethyl]piperidin-4-yliden}-4H-benzo[4,5]cyclohepta[1,2-b]thiophen-10(9H)-one. HBr] | ~0.21 | ~1.8 |
| OCCOCCOCCN1CCC(=C2c3ccccc3C=Cc3ccccc32)CC1 [Compound B, 2-{2-[2-[4-(5H-dibenzo[a,d]cyclohept-5-yliden)piperidin-1-yl]ethoxy]ethoxy}ethanol hydrogenofumarate] | ~0.22 | ~0.49 |
| O=C(O)c1cc(=O)c2c(OCC(O)COc3cccc4oc(C(=O)O)cc(=O)c34)cccc2o1 [Compound C, 5,5'-[(2-hydroxy-1,3-propanediyl)bis-(oxy)]bis[4-oxo-4H-1-benzopyran-2-carboxylic acid], reference compound] | ~2.6 |  |
